Patent US20160310613A1, “METHODS AND COMPOSITIONS FOR OVERCOMING DRUG-RESISTANCE IN CANCER BY TARGETED DELIVERY OF PRO-DRUG-NANO-POLYMERS” (priority 2015, published 2016)
≈ marks a conversion by molar mass, not a printed value.

How the values were obtained:
[1] = system: MCF-7 MDR Doxorubicin resistant cells; test: Epi-fluorescent microscopy of doxorubicin delivery and retention
[2] = system: SKOV-3 sensitive Ovarian cancer cells; details: cells pretargeted with anti-HER2/neu affibody, FIG. 7
Protocol: (§1) Human ovarian cancer (SKOV-3) sensitive cells were grown in six well plates. Aliquots of 5000 cells/well were seeded in the cell culture treated 96 well plates and were grown for 24 hours. Cultured cells (SKOV-3) were incubated with bispecific anti-Her-2 Affibody-anti-DTPA antibody at a concentration of 20 or 40 μg/ml for 24 hours at 37° C. […] After 24 h incubation at 37° C., viability was assessed by Trypan Blue exclusion test using CellTiter Blue® (Promega, Madison, Wis.) following the manufacturer's protocol. Briefly, media was removed from plates containing cells incubated with agent-polymer conjugates. The plates were washed 2× with 200 μl of complete medium and then incubated with 50 μl of 1:50 dilution of CellTiter Blue® reagent for 2 hours. Cell viability was then evaluated by measuring the fluorescence (excitation 530 nm, emission 590 nm) using a Synergy HT multi-21 detection microplate reader (Biotek, Winooski, Vt.). Cells treated with complete media alone were used as controls to calculate the 100% cell viability and the studies were carried out in triplicates in at least 3 different assays. […] The above studies were repeated for 48 h incubation time.

[3] = system: SKOV-3 TR resistant Ovarian cancer cells; test: cells; type: cell-based
Protocol: Human ovarian cancer (SKOV-3 TR) resistant cells were cultured using the same protocol described for culturing SKOV-3 TR resistant cells in Example 8 above. Cultured cells (SKOV-3 TR) were incubated with bispecific anti-Her-2 Affibody-anti-DTPA antibody at a concentration of 20 μg/ml for 24 hours at 37° C. […] After 24-48 h incubation at 37° C., viability was assessed by Trypan Blue exclusion test using CellTiter Blue® (Promega, Madison, Wis.) following the manufacturer's protocol as described above in Example 8.
SKOV-3 sensitive and SKOV-3 TR resistant Ovarian cancer cells were cultured using the same protocol described in Examples 8 and 9 above. Cultured cells were incubated with bispecific anti-Her-2 Affibody-anti-DTPA antibody.

[4] = system: SKOV-3 sensitive Ovarian cancer cells; test: cells; details: Homo sapiens, SK-OV-3, read-out: IC50 value in SKOV-3 sensitive cells
Protocol: as §1

Compound: COc1cccc2c1C(=O)c1c(O)c3c(c(O)c1C2=O)C[C@@](O)(C(=O)CO)C[C@@H]3O[C@H]1C[C@H](N)[C@H](O)[C@H](C)O1 [free Dox, doxorubicin]
- Doxorubicin fluorescence in cells ([1]; 15 μg/ml, incubated 5 h, FIG. 8A): nuclear sequestration
- Doxorubicin uptake in cells ([1]; incubated 1 h, then Dox free medium 4 h, FIG. 8B): less Dox uptake occurred

Compound: DTPA-Doxorubicin-Poly Glutamic acid [D-Dox-PGA]
- Doxorubicin retention in cells ([1]; pretargeted with bispecific biotinylated-anti-DTPA antibody, 1 h, then Dox free media 4 h, FIG. 8C): more Dox is retained

Compound: DTPA-Paclitaxel-Poly Glutamic acid [D-PTXL-PGA]
- IC50 value in paclitaxel sensitive ovarian cancer cells [2]: 0.089 µg/mL
- Amount needed to obtain 50% cell killing in SKOV-3 TR cells relative to free PTXL ([3]; SKOV-3 TR cells): 5 times less
- IC50 value in paclitaxel resistant ovarian cancer cells ([3]; cells pretargeted with anti-HER2/neu affibody, FIG. 7): 0.069 µg/mL
- Concentration needed to obtain 50% cell killing in SKOV-3 TR resistant relative to SKOV-3 sensitive cells ([3]; ratio resistant/sensitive): 2 time more

Compound: CC(=O)O[C@H]1C(=O)[C@@]2(C)[C@H]([C@H](OC(=O)c3ccccc3)[C@]3(O)C[C@H](OC(=O)[C@H](O)[C@@H](NC(=O)c4ccccc4)c4ccccc4)C(C)=C1C3(C)C)[C@]1(OC(C)=O)CO[C@@H]1C[C@@H]2O [free PTXL, Paclitaxel]
- IC50 ([3]; Homo sapiens, SKOV3TR, free drug, FIG. 7): 0.936 µg/mL (≈ 1.1 µM)
- IC50 in SKOV-3 TR resistant cells relative to SKOV-3 sensitive cells ([3]; ratio resistant/sensitive): about 10 times higher
- IC50 [4]: 0.089 µg/mL (≈ 0.104 µM)
